Tests used:
[1] = molecular target: CDC7/DBF4 (Cell division cycle 7-related protein kinase/Activator of S phase kinase) (Homo sapiens) (UniProt Q9UBU7+O00311); assay: Inhibition of human CDC7/DBF4 assessed as residual activity at 1 uM using KTFCGTPEYLAPEVRREPRILSEEEQEMFRDFDYIADWC as substrate by [gamma-33P]-ATP assay relative to control; assay type: protein-complex assay
[2] = molecular target: T1, Serine/threonine-protein kinase A-Raf (Homo sapiens) (UniProt P10398); assay: Inhibition of human ARAF assessed as residual activity at 1 uM using MEK1 as substrate by [gamma-33P]-ATP assay relative to control
T1 sequence (whole entry): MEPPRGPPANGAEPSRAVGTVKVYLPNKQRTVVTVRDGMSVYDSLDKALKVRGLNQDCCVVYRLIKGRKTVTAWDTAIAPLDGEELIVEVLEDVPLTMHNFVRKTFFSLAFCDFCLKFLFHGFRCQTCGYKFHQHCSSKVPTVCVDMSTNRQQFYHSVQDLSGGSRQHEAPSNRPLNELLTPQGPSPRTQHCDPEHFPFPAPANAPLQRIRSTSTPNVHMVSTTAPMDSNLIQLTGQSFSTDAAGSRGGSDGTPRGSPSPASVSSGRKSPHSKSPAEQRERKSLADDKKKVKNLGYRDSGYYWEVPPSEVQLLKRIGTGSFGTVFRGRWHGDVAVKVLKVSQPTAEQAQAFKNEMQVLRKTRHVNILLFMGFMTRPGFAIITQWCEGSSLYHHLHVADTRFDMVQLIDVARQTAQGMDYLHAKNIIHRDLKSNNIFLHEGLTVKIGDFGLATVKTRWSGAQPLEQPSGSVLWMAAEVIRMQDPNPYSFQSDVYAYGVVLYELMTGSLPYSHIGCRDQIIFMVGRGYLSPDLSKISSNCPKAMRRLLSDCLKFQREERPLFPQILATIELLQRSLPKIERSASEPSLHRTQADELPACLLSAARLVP

[3] = molecular target: MAP kinase-interacting serine/threonine-protein kinase 2 (Homo sapiens) (UniProt Q9HBH9); assay: Inhibition of human MNK2 assessed as residual activity at 1 uM using MBP as substrate by [gamma-33P]-ATP assay relative to control
[4] = molecular target: T2, Serine/threonine-protein kinase Chk1 (Homo sapiens) (UniProt O14757); assay: Inhibition of CHK1 phosphorylation at S345 residue in human FOLFOX-resistant HCT116 cells after 24 hrs by Western blot analysis
T2 sequence (whole entry): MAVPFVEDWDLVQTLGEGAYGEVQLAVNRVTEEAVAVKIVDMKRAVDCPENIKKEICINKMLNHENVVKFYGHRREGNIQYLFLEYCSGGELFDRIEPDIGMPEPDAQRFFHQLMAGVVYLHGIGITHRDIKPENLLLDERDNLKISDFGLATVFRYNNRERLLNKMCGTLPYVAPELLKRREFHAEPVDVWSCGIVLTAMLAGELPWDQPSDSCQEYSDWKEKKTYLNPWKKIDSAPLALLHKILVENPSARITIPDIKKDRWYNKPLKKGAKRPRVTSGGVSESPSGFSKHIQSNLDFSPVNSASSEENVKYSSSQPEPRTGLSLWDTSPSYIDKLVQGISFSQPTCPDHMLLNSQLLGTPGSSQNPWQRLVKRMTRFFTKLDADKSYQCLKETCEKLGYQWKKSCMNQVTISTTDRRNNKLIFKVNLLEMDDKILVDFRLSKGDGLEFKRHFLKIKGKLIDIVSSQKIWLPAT

[5] = molecular target: Dual specificity protein kinase CLK3 (Homo sapiens) (UniProt P49761); assay: Inhibition of human CLK3 assessed as residual activity at 1 uM using MBP as substrate by [gamma-33P]-ATP assay relative to control
[6] = molecular target: Insulin receptor (Homo sapiens) (UniProt P06213); assay: Inhibition of human IR assessed as residual activity at 1 uM using poly[Glu:Tyr] (4:1) as substrate by [gamma-33P]-ATP assay relative to control
[7] = molecular target: Proto-oncogene tyrosine-protein kinase ROS (Homo sapiens) (UniProt P08922); assay: Inhibition of human ROS assessed as residual activity at 1 uM using KKKSPGEYVNIEFG as substrate by [gamma-33P]-ATP assay relative to control
[8] = molecular target: Hepatocyte growth factor receptor (Homo sapiens) (UniProt P08581); assay: Inhibition of human c-MET assessed as residual activity at 1 uM using KKKSPGEYVNIEFG as substrate by [gamma-33P]-ATP assay relative to control
[9] = molecular target: Activin receptor type-1 (Homo sapiens) (UniProt Q04771); assay: Inhibition of human ALK2 assessed as residual activity at 1 uM using casein as substrate by [gamma-33P]-ATP assay relative to control
[10] = molecular target: Vascular endothelial growth factor receptor 1 (Homo sapiens) (UniProt P17948); assay: Inhibition of human FLT1 assessed as residual activity at 1 uM using poly[Glu:Tyr] (4:1) as substrate by [gamma-33P]-ATP assay relative to control
[11] = molecular target: Casein kinase I isoform alpha (Homo sapiens) (UniProt P48729); assay: Inhibition of human CK1a1 assessed as residual activity at 1 uM using KRRRAL[pS]VASLPGL as substrate by [gamma-33P]-ATP assay relative to control
[12] = molecular target: Serine/threonine-protein kinase 17A (Homo sapiens) (UniProt Q9UEE5); assay: Inhibition of human DRAK1 assessed as residual activity at 1 uM using KKLNRTLSFAEPG as substrate by [gamma-33P]-ATP assay relative to control
[13] = molecular target: CDK2/Cyclin O (Homo sapiens) (UniProt P24941+P22674); assay: Inhibition of human CDK2/cyclin-O assessed as residual activity at 1 uM using histone H1 as substrate by [gamma-33P]-ATP assay relative to control; assay type: protein-complex assay
[14] = molecular target: cAMP-dependent protein kinase catalytic subunit PRKX (Homo sapiens) (UniProt P51817); assay: Inhibition of human PRKX assessed as residual activity at 1 uM using LRRASLG as substrate by [gamma-33P]-ATP assay relative to control
[15] = molecular target: Mitogen-activated protein kinase kinase kinase 3 (Homo sapiens) (UniProt Q99759); assay: Inhibition of human MEKK3 assessed as residual activity at 1 uM using MBP as substrate by [gamma-33P]-ATP assay relative to control
[16] = molecular target: Mitogen-activated protein kinase kinase kinase 12 (Homo sapiens) (UniProt Q12852); assay: Inhibition of human DLK assessed as residual activity at 1 uM using MBP as substrate by [gamma-33P]-ATP assay relative to control
[17] = molecular target: Serine/threonine-protein kinase WNK3 (Homo sapiens, UniProt Q9BYP7); assay: Inhibition of human WNK3 assessed as residual activity at 1 uM using MBP as substrate by [gamma-33P]-ATP assay relative to control
[18] = molecular target: Tyrosine-protein kinase JAK1 (Homo sapiens) (UniProt P23458); assay: Inhibition of human JAK1 assessed as residual activity at 1 uM using poly[Glu:Tyr] (4:1) as substrate by [gamma-33P]-ATP assay relative to control

Insulin receptor (Homo sapiens), sequence (P06213 28-758 limits assumed): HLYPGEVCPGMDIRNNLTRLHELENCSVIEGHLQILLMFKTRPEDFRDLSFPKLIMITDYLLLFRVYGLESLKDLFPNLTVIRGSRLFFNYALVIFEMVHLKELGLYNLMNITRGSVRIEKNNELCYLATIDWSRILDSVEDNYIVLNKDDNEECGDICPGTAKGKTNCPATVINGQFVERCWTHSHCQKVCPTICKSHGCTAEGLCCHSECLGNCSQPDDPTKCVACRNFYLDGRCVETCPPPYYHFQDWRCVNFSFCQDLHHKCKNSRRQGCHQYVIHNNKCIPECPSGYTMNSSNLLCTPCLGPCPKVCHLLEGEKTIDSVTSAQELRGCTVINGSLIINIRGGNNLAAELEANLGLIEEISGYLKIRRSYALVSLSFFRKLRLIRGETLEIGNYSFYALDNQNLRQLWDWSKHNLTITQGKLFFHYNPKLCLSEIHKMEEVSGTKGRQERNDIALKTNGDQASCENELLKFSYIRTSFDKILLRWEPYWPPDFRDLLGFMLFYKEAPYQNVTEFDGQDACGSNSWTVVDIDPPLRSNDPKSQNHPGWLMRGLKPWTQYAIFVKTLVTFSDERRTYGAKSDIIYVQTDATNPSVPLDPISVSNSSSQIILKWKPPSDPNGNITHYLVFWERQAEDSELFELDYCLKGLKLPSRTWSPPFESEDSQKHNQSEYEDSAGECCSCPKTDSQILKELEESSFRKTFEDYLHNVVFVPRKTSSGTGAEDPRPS
Insulin receptor (Homo sapiens), sequence (P06213 763-1382 limits assumed): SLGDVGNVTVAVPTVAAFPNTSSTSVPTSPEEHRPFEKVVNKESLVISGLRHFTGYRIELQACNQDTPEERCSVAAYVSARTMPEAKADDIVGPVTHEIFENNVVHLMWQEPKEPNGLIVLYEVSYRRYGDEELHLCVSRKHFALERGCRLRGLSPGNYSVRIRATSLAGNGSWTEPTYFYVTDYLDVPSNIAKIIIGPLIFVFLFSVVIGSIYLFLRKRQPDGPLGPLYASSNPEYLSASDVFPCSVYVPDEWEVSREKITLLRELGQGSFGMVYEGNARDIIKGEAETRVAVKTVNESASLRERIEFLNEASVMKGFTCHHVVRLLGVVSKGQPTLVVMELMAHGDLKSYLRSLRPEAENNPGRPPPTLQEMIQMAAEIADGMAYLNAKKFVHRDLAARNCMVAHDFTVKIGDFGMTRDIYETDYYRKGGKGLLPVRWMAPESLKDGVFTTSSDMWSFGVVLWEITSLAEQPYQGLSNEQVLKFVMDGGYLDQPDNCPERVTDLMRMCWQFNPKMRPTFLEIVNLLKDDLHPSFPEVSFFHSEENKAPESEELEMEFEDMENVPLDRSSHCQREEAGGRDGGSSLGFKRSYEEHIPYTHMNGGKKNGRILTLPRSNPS
Serine/threonine-protein kinase WNK3, sequence (Q9BYP7 whole entry): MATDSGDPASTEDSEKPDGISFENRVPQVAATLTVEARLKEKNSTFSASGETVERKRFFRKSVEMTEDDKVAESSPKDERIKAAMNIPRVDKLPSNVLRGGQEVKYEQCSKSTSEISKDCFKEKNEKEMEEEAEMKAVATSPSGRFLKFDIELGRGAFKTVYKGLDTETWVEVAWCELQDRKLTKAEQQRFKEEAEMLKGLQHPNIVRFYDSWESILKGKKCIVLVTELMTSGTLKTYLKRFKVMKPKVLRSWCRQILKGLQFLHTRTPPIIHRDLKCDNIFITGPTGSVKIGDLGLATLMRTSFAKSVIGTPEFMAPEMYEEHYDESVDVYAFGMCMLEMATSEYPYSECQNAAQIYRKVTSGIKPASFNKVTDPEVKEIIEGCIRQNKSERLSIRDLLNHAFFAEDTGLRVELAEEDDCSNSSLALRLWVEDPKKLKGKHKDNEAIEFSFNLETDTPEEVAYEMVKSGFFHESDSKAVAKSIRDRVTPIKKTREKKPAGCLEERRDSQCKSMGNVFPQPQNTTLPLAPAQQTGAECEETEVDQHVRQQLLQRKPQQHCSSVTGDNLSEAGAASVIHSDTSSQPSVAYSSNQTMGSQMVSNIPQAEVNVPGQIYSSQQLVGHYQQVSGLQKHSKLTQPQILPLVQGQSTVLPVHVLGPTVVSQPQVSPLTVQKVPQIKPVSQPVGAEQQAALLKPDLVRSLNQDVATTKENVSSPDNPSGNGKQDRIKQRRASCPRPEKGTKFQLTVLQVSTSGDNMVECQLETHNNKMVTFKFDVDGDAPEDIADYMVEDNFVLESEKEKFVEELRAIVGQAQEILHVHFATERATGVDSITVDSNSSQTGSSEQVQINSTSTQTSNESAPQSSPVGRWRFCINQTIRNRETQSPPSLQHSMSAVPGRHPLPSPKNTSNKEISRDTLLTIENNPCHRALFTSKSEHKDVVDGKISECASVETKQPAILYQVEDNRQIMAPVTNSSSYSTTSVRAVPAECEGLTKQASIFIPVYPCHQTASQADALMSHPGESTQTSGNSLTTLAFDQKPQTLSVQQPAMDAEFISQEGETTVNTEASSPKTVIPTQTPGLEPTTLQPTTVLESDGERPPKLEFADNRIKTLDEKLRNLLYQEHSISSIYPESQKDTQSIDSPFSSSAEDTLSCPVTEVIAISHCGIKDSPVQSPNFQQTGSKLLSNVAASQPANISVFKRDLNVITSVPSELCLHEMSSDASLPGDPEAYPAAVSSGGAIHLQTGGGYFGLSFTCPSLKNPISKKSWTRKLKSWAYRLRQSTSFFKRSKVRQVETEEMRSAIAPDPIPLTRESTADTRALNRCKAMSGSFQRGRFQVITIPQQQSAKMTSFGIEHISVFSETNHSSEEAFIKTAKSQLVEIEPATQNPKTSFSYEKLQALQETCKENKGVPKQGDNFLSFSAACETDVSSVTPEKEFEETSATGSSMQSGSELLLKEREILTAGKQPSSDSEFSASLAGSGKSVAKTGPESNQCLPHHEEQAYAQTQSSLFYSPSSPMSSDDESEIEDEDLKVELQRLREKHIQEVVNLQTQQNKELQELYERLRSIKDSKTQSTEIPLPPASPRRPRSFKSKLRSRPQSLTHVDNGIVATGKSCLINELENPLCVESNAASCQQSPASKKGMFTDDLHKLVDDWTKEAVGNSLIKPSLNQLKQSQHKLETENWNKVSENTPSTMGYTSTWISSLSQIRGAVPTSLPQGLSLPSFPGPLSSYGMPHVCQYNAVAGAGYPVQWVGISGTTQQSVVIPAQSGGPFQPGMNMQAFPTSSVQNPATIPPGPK
Mitogen-activated protein kinase kinase kinase 3 (Homo sapiens), sequence (Q99759 whole entry): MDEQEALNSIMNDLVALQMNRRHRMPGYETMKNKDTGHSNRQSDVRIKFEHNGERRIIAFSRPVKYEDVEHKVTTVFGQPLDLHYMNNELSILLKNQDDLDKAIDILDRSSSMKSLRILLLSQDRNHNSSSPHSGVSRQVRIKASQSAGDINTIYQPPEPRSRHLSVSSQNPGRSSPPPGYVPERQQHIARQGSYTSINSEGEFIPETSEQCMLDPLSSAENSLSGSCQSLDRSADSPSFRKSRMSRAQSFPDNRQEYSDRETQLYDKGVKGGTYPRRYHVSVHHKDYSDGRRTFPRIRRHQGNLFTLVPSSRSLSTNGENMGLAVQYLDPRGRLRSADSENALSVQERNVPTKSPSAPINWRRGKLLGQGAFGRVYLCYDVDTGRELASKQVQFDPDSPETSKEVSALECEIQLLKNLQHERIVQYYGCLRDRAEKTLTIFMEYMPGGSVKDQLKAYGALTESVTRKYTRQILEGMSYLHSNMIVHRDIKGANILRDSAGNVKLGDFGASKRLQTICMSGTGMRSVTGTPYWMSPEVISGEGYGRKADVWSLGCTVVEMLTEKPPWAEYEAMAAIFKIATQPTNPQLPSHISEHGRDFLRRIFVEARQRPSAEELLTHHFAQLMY
CDC7/DBF4 (Cell division cycle 7-related protein kinase/Activator of S phase kinase) (Homo sapiens), sequence (O00311 whole entry, looked up): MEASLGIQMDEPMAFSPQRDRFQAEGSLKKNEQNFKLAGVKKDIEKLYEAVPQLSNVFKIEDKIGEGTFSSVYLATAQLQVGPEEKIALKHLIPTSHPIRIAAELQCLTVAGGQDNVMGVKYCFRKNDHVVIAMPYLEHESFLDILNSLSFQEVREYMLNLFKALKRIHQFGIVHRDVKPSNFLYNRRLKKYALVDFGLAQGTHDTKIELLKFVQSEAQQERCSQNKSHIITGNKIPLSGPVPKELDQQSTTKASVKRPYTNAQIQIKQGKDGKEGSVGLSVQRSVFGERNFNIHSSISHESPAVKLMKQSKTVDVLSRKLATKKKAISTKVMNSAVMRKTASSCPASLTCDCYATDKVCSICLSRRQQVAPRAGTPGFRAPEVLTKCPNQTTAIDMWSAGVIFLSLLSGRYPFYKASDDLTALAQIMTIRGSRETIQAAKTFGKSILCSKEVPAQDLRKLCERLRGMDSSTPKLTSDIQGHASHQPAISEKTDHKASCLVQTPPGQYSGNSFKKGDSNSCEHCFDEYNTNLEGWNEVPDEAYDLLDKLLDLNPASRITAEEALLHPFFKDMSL
CDC7/DBF4 (Cell division cycle 7-related protein kinase/Activator of S phase kinase) (Homo sapiens), sequence (Q9UBU7 whole entry, looked up): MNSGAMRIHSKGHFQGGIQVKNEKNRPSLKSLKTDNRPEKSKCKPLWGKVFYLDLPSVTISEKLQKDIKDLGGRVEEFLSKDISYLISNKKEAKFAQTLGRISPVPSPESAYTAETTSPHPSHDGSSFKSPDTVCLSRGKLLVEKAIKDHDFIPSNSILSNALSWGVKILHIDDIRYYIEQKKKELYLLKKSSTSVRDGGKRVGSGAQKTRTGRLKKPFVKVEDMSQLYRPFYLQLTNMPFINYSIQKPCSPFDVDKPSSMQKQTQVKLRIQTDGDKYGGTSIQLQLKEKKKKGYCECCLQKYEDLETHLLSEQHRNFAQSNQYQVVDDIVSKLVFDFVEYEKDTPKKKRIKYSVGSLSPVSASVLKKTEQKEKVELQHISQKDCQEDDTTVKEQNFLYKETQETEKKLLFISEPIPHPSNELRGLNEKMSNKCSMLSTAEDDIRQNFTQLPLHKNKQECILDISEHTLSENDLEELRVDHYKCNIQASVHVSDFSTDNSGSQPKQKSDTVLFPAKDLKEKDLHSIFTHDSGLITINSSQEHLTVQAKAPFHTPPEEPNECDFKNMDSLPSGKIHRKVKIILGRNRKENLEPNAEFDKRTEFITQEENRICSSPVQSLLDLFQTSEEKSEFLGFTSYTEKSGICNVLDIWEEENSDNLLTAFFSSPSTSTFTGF

Row | SMILES | Activity [1] [%] | Activity [2] [%] | Activity [3] [%] | inhibition [4] | Activity [5] [%] | Activity [6] [%] | Activity [7] [%] | Activity [8] [%] | Activity [9] [%] | Activity [10] [%] | Activity [11] [%] | Activity [12] [%] | Activity [13] [%] | Activity [14] [%] | Activity [15] [%] | Activity [16] [%] | Activity [17] [%] | Activity [18] [%]
1 | C(=C\c1ccccc1)/C[N+]12CN3CN(CN(C3)C1)C2 | 94 to 94.4 | 92 to 97 | 93 to 95.7 | Dose-dependent effect | 96.2 to 96.9 | 96 to 96.4 | 94.4 to 94.8 | 78.7 to 88 | 96.6 to 96.7 | 96.1 to 97.1 | 94.9 to 96.5 | 92.8 to 95.6 | 94.1 to 96.4 | 93.3 to 94.9 | 117 to 119 | 88.4 to 93.3 | 92.3 to 93 | 92.4 to 92.6
2 | ClC/C=C/C[N+]12CN3CN(CN(C3)C1)C2 | 93.8 to 95.8 | 93.8 to 95.3 | 91.2 to 92.6 | Dose-dependent effect | 92.6 to 95.8 | 95 to 96.7 | 94 to 95.2 | 84.9 to 90.2 | 94.7 to 94.8 | 94.7 to 95.5 | 95.6 to 96.5 | 90.9 to 92.8 | 96 to 96.3 | 95.2 to 96 | 118 to 123 | 71.9 to 74.8 | 90.2 to 91.3 | 92.7 to 94.5

From ChEMBL document CHEMBL4325871 (Eur J Med Chem, 2019)
